Reference: PubChem BioAssay AID1919003 (Molecular Pharmacology Branch, DTP, NCI, 2023)

System: 786-0 complex spheroids with HUVEC/MSC, growth % test/control
Experiment: Anticancer human tumor 786-0 cell line growth inhibition [AhR];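 further: compound exposure lasted seven days before the read-out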
Details: for IC50: curve of first compound; for viability, T/C: stronger effect = lower value; active means viability on the fitted dose curve at most 10% of control; inactive means the rest
Method in brief: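 Agents were dosed in half-log steps down from roughly clinical Cmax, or from 10 microM where Cmax was unknown, alone and with AhR antagonists. Read-out: percent test/control growth of tumor spheroids containing HUVEC and MSC stromal cells.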

[1] = second compound 0.1 µM, first compound 0.0316 µM
[2] = second compound 0.1 µM, first compound 0.1 µM
[3] = second compound 0.1 µM, first compound 0.316 µM
[4] = second compound 0.1 µM, first compound 1 µM
[5] = second compound 0.1 µM, first compound 3.16 µM
[6] = second compound 0.1 µM, first compound 10 µM
[7] = second compound 0.316 µM, first compound 0.0316 µM
[8] = second compound 0.316 µM, first compound 0.1 µM
[9] = second compound 0.316 µM, first compound 0.316 µM
[10] = second compound 0.316 µM, first compound 1 µM
[11] = second compound 0.316 µM, first compound 3.16 µM
[12] = second compound 0.316 µM, first compound 10 µM
[13] = second compound 1 µM, first compound 0.0316 µM
[14] = second compound 1 µM, first compound 0.1 µM
[15] = second compound 1 µM, first compound 0.316 µM
[16] = second compound 1 µM, first compound 1 µM
[17] = second compound 1 µM, first compound 3.16 µM
[18] = second compound 1 µM, first compound 10 µM
[19] = second compound 3.16 µM, first compound 0.0316 µM
[20] = second compound 3.16 µM, first compound 0.1 µM
[21] = second compound 3.16 µM, first compound 0.316 µM
[22] = second compound 3.16 µM, first compound 1 µM
[23] = second compound 3.16 µM, first compound 3.16 µM
[24] = second compound 3.16 µM, first compound 10 µM
[25] = second compound 10 µM, first compound 0.0316 µM
[26] = second compound 10 µM, first compound 0.1 µM
[27] = second compound 10 µM, first compound 0.316 µM
[28] = second compound 10 µM, first compound 1 µM
[29] = second compound 10 µM, first compound 3.16 µM
[30] = second compound 10 µM, first compound 10 µM

CC(C)c1c(-c2ccccc2)nc2c(C#N)c[nH]n2c1=O + CC(CO)NC(=O)c1cc(-c2ccc(Cl)cc2)nn(-c2cnn(C)c2)c1=O
> 10000 nM: IC50 (second compound 0.1 µM) | IC50 (second compound 0.316 µM) | IC50 (second compound 1 µM) | IC50 (second compound 3.16 µM) | IC50 (second compound 10 µM)
inactive: viability, T/C [1] 98% | viability, T/C [2] 95.9% | viability, T/C [3] 104% | viability, T/C [4] 106% | viability, T/C [5] 93.7% | viability, T/C [6] 104% | viability, T/C [7] 95% | viability, T/C [8] 101% | viability, T/C [9] 93.2% | viability, T/C [10] 95.1% | viability, T/C [11] 92.3% | viability, T/C [12] 90% | viability, T/C [13] 99.9% | viability, T/C [14] 99.1% | viability, T/C [15] 105% | viability, T/C [16] 104% | viability, T/C [17] 107% | viability, T/C [18] 96.2% | viability, T/C [19] 100% | viability, T/C [20] 96.5% | viability, T/C [21] 97.9% | viability, T/C [22] 99.5% | viability, T/C [23] 106% | viability, T/C [24] 101% | viability, T/C [25] 118% | viability, T/C [26] 105% | viability, T/C [27] 105% | viability, T/C [28] 108% | viability, T/C [29] 103% | viability, T/C [30] 125%

CC1COCCN1c1cc(-c2ccnn2C)c2ccnc(-c3ccn[nH]3)c2n1 (stereo not given) + CC(CO)NC(=O)c1cc(-c2ccc(Cl)cc2)nn(-c2cnn(C)c2)c1=O
51.1 nM: IC50 (second compound 10 µM)
inactive: viability, T/C (second compound 0.1 µM, first compound 0.00316 µM) 100% | viability, T/C (second compound 0.1 µM, first compound 0.01 µM) 100% | viability, T/C [1] 106% | viability, T/C [2] 63.5% | viability, T/C (second compound 0.316 µM, first compound 0.00316 µM) 112% | viability, T/C (second compound 0.316 µM, first compound 0.01 µM) 103% | viability, T/C [7] 105% | viability, T/C [8] 53.3% | viability, T/C (second compound 1 µM, first compound 0.00316 µM) 97.6% | viability, T/C (second compound 1 µM, first compound 0.01 µM) 110% | viability, T/C [13] 104% | viability, T/C [14] 49% | viability, T/C (second compound 3.16 µM, first compound 0.00316 µM) 112% | viability, T/C (second compound 3.16 µM, first compound 0.01 µM) 114% | viability, T/C [19] 103% | viability, T/C [20] 36.7% | viability, T/C (second compound 10 µM, first compound 0.00316 µM) 116% | viability, T/C (second compound 10 µM, first compound 0.01 µM) 109% | viability, T/C [25] 78.5% | viability, T/C [26] 10.1%
109 nM: IC50 (second compound 0.316 µM)
79.4 nM: IC50 (second compound 3.16 µM)
active: viability, T/C [3] 11.1% | viability, T/C [4] 3.76% | viability, T/C [9] 7.31% | viability, T/C [10] 3.22% | viability, T/C [15] 8.48% | viability, T/C [16] 3.85% | viability, T/C [21] 6.89% | viability, T/C [22] 3.57% | viability, T/C [27] 2.89% | viability, T/C [28] 2.73%
98.3 nM: IC50 (second compound 1 µM)
134 nM: IC50 (second compound 0.1 µM)

CC1COCCN1c1cc(C2(S(C)(=N)=O)CC2)nc(-c2ccnc3[nH]ccc23)n1 (stereo not given) + CC(CO)NC(=O)c1cc(-c2ccc(Cl)cc2)nn(-c2cnn(C)c2)c1=O
active: viability, T/C [30] 8.6%
2640 nM: IC50 (second compound 1 µM)
2780 nM: IC50 (second compound 0.316 µM)
2570 nM: IC50 (second compound 3.16 µM)
2090 nM: IC50 (second compound 10 µM)
inactive: viability, T/C [1] 99.7% | viability, T/C [2] 99.5% | viability, T/C [3] 98.1% | viability, T/C [4] 99.4% | viability, T/C [5] 48% | viability, T/C [6] 15.7% | viability, T/C [7] 101% | viability, T/C [8] 110% | viability, T/C [9] 96.2% | viability, T/C [10] 101% | viability, T/C [11] 43.6% | viability, T/C [12] 17.3% | viability, T/C [13] 108% | viability, T/C [14] 102% | viability, T/C [15] 113% | viability, T/C [16] 97.4% | viability, T/C [17] 41.3% | viability, T/C [18] 13.7% | viability, T/C [19] 108% | viability, T/C [20] 101% | viability, T/C [21] 118% | viability, T/C [22] 107% | viability, T/C [23] 37.5% | viability, T/C [24] 10.8% | viability, T/C [25] 110% | viability, T/C [26] 118% | viability, T/C [27] 115% | viability, T/C [28] 93.6% | viability, T/C [29] 25.5%
3020 nM: IC50 (second compound 0.1 µM)

COc1ccc([C@@H](O)c2cc(-c3ncnc4cc(N5CCOCC5)ccc34)c(F)cc2Cl)nn1 + CC(CO)NC(=O)c1cc(-c2ccc(Cl)cc2)nn(-c2cnn(C)c2)c1=O
inactive: viability, T/C [1] 99.5% | viability, T/C [2] 109% | viability, T/C [3] 111% | viability, T/C [4] 115% | viability, T/C [5] 117% | viability, T/C [6] 85.2% | viability, T/C [7] 102% | viability, T/C [8] 107% | viability, T/C [9] 118% | viability, T/C [10] 106% | viability, T/C [11] 108% | viability, T/C [12] 91.2% | viability, T/C [13] 110% | viability, T/C [14] 114% | viability, T/C [15] 110% | viability, T/C [16] 113% | viability, T/C [17] 114% | viability, T/C [18] 91.6% | viability, T/C [19] 102% | viability, T/C [20] 112% | viability, T/C [21] 114% | viability, T/C [22] 111% | viability, T/C [23] 107% | viability, T/C [24] 83.2% | viability, T/C [25] 117% | viability, T/C [26] 122% | viability, T/C [27] 115% | viability, T/C [28] 115% | viability, T/C [29] 100% | viability, T/C [30] 78%
> 10000 nM: IC50 (second compound 0.1 µM) | IC50 (second compound 0.316 µM) | IC50 (second compound 1 µM) | IC50 (second compound 3.16 µM) | IC50 (second compound 10 µM)

O=C(C=Cn1cnc(-c2cc(C(F)(F)F)cc(C(F)(F)F)c2)n1)NNc1cnccn1 + CC(CO)NC(=O)c1cc(-c2ccc(Cl)cc2)nn(-c2cnn(C)c2)c1=O
278 nM: IC50 (second compound 0.1 µM) | IC50 (second compound 10 µM)
246 nM: IC50 (second compound 3.16 µM)
inactive: viability, T/C (second compound 0.1 µM, first compound 0.00949 µM) 108% | viability, T/C (second compound 0.1 µM, first compound 0.03 µM) 110% | viability, T/C (second compound 0.1 µM, first compound 0.0949 µM) 107% | viability, T/C (second compound 0.1 µM, first compound 0.3 µM) 45.5% | viability, T/C (second compound 0.1 µM, first compound 0.949 µM) 25.7% | viability, T/C (second compound 0.1 µM, first compound 3 µM) 10.5% | viability, T/C (second compound 0.316 µM, first compound 0.00949 µM) 111% | viability, T/C (second compound 0.316 µM, first compound 0.03 µM) 113% | viability, T/C (second compound 0.316 µM, first compound 0.0949 µM) 112% | viability, T/C (second compound 0.316 µM, first compound 0.3 µM) 38.7% | viability, T/C (second compound 0.316 µM, first compound 0.949 µM) 28.2% | viability, T/C (second compound 0.316 µM, first compound 3 µM) 11% | viability, T/C (second compound 1 µM, first compound 0.00949 µM) 105% | viability, T/C (second compound 1 µM, first compound 0.03 µM) 115% | viability, T/C (second compound 1 µM, first compound 0.0949 µM) 113% | viability, T/C (second compound 1 µM, first compound 0.3 µM) 36% | viability, T/C (second compound 1 µM, first compound 0.949 µM) 24.5% | viability, T/C (second compound 1 µM, first compound 3 µM) 9.93% | viability, T/C (second compound 3.16 µM, first compound 0.00949 µM) 110% | viability, T/C (second compound 3.16 µM, first compound 0.03 µM) 116% | viability, T/C (second compound 3.16 µM, first compound 0.0949 µM) 106% | viability, T/C (second compound 3.16 µM, first compound 0.3 µM) 37.9% | viability, T/C (second compound 3.16 µM, first compound 0.949 µM) 22.9% | viability, T/C (second compound 3.16 µM, first compound 3 µM) 9.29% | viability, T/C (second compound 10 µM, first compound 0.00949 µM) 119% | viability, T/C (second compound 10 µM, first compound 0.03 µM) 122% | viability, T/C (second compound 10 µM, first compound 0.0949 µM) 107% | viability, T/C (second compound 10 µM, first compound 0.3 µM) 44.8% | viability, T/C (second compound 10 µM, first compound 0.949 µM) 23.6% | viability, T/C (second compound 10 µM, first compound 3 µM) 10.6%
251 nM: IC50 (second compound 0.316 µM)
242 nM: IC50 (second compound 1 µM)
